From patent publication US20090118350A1, “Biomarkers for Identifying Efficacy of Tegaserod in Patients with Chronic Constipation” (priority 2005, published 2009)

System: patients with chronic constipation
Assay: Clinical trial, secondary efficacy RESP12: increase of 1 or more CSBM/week over baseline after 12 weeks of treatment, by subgroup and genotype
Type: in vivo, human
Settings: for Odds Ratio (T6 v P) / % Responders T6: 6-mg bid
Method: Introduction. A clinical trial was performed to evaluate the efficacy of tegaserod (Zelmac®/Zelnorm™) at 6 mg bid (12 mg/day) or 2 mg bid (4 mg/day) vs. placebo by measuring the number of complete spontaneous bowel movements (CSBM) during the first 4 weeks of treatment. Secondary objectives included evaluating the number of CSBM during the entire 12-week treatment period, bowel habits, laxative use, and safety and tolerability issues. The clinical trial design consisted of a 2-week baseline period without medication, a 12-week, randomized, double-blind, placebo-controlled treatment period, and a 4-week withdrawal period without study medication. As part of the clinical trial, DNA was collected from patients at screening for pharmacogenetic analysis to evaluate genetic polymorphisms relating to drug targets and disease aetiology.
Clinical assessments. […] The primary efficacy endpoint evaluated was the increase of 1 or more CSBM/week over baseline after 4 weeks of treatment. A secondary endpoint evaluated in this genotyping study was RESP12, the increase of 1 of more CSBM/week over baseline after 12 weeks of treatment. Patients were classified as responders if they met these criteria and had completed at least 7 days of treatment. Additional secondary efficacy assessments were evaluated based on the weekly diary assessments, such as bothersome constipation, bothersome abdominal pain, and satisfaction with bowel habits at the end of the 12-week treatment period (using the baseline value as a co-variant for analysis).
Statistical analysis. Statistical analysis was performed using SAS version 8.2 (The SAS Institute, Cary, N.C., USA). Analysis methods included Fisher's Exact tests, analysis of Covariance (ANCOVA), logistic regression, and Mantel-Haenzel tests to determine odds ratios and 95% confidence intervals, with significance established at p<0.05. Calculation of linkage disequilibrium was performed using the GOLD (graphical overview of linkage disequilibrium) method described by Abecasis & Cookson, Bioinformatics 16: 182-3 (2000).
Secondary efficacy endpoint: response after 12 weeks of treatment. The same comparison as above was performed using the secondary efficacy endpoint of a mean increase of 1 or more CSBM/week over baseline after 12 weeks of treatment. The results for the 12 individual “high responder” SNPs are presented in TABLE 9 and the results using the comparison of individuals with or without at least one of the twelve SNPs is presented in TABLE 10.

[1] = M + F (<65), 0-12 of the 12 SNPs
[2] = M + F (<65), 1-12 of the 12 SNPs
[3] = M + F (>=65), 0-12 of the 12 SNPs
[4] = M + F (>=65), 1-12 of the 12 SNPs
[5] = M + F (All ages), 0-12 of the 12 SNPs
[6] = M + F (All ages), 0 of the 12 SNPs
[7] = M + F (All ages), 1-12 of the 12 SNPs
[8] = Male (All ages), 0-12 of the 12 SNPs
[9] = Male (All ages), 0 of the 12 SNPs
[10] = Male (All ages), 1-12 of the 12 SNPs

SMILES: [H]/N=C(/NCCCCC)N/N=C/c1c[nH]c2ccc(OC)cc12 [tegaserod, Tegaserod]
- Odds Ratio (T6 v P) (HTR4 (3753) genotype CC): 3.1
- % Responders T6 (HTR4 (3753) genotype CT): 50%
- Odds Ratio (T6 v P) (HTR4 (3753) genotype CT): 2.7
- % Responders T6 (HTR4 (3753) genotype TT): 70%
- Odds Ratio (T6 v P) (HTR4 (3753) genotype TT): 3.5
- % Responders T6 (HTR4 (3754) genotype AA): 50%
- Odds Ratio (T6 v P) (HTR4 (3754) genotype AA): 4.1
- % Responders T6 (HTR4 (3754) genotype AT): 45%
- Odds Ratio (T6 v P) (HTR4 (3754) genotype AT): 2.0
- % Responders T6 (HTR4 (3754) genotype TT): 63%
- Odds Ratio (T6 v P) (HTR4 (3754) genotype TT): 2.8
- % Responders T6 (HTR4 (3756) genotype AA): 39%
- Odds Ratio (T6 v P) (HTR4 (3756) genotype AA): 2.6
- % Responders T6 (HTR4 (3756) genotype AC): 54%
- Odds Ratio (T6 v P) (HTR4 (3756) genotype AC): 3.0
- % Responders T6 (HTR4 (3756) genotype CC): 71%
- Odds Ratio (T6 v P) (HTR4 (3756) genotype CC): 4.6
- % Responders T6 [1]: 49%
- Odds Ratio (T6 v P) [1]: 3.0
- % Responders T6 (M + F (<65), 0 of the 12 SNPs): 37%
- Odds Ratio (T6 v P) (M + F (<65), 0 of the 12 SNPs): 1.6
- % Responders T6 [2]: 62%
- Odds Ratio (T6 v P) [2]: 5.6
- % Responders T6 [3]: 53%
- Odds Ratio (T6 v P) [3]: 2.3
- % Responders T6 (M + F (>=65), 0 of the 12 SNPs): 29%
- Odds Ratio (T6 v P) (M + F (>=65), 0 of the 12 SNPs): 0.4
- % Responders T6 [4]: 70%
- Odds Ratio (T6 v P) [4]: 10.1
- % Responders T6 [5]: 49%
- Odds Ratio (T6 v P) [5]: 2.8
- % Responders T6 [6]: 36%
- Odds Ratio (T6 v P) [6]: 1.3
- % Responders T6 [7]: 63%
- Odds Ratio (T6 v P) [7]: 6.0
- % Responders T6 (MLN (1783) genotype CC): 49%
- Odds Ratio (T6 v P) (MLN (1783) genotype CC): 2.6
- % Responders T6 (MLN (1783) genotype CT): 44%
- Odds Ratio (T6 v P) (MLN (1783) genotype CT): 2.2
- % Responders T6 (MLN (1783) genotype TT): 67%
- Odds Ratio (T6 v P) (MLN (1783) genotype TT): 12.0
- % Responders T6 [8]: 57%
- Odds Ratio (T6 v P) [8]: 3.0
- % Responders T6 [9]: 40%
- Odds Ratio (T6 v P) [9]: 0.8
- % Responders T6 [10]: 73%
- Odds Ratio (T6 v P) [10]: 13.3
- % Responders T6 (SCNN1A (3806) genotype GG): 62%
- Odds Ratio (T6 v P) (SCNN1A (3806) genotype GG): 5.9
- % Responders T6 (SCNN1A (3806) genotype GT): 49%
- Odds Ratio (T6 v P) (SCNN1A (3806) genotype GT): 2.6
- % Responders T6 (SCNN1A (3806) genotype TT): 44%
- Odds Ratio (T6 v P) (SCNN1A (3806) genotype TT): 2.2
- % Responders T6 (SLC12A2 (1842) genotype AA): 54%
- Odds Ratio (T6 v P) (SLC12A2 (1842) genotype AA): 6.2
- % Responders T6 (SLC12A2 (1842) genotype AG): 47%
- Odds Ratio (T6 v P) (SLC12A2 (1842) genotype AG): 2.7
- % Responders T6 (SLC12A2 (1842) genotype GG): 50%
- Odds Ratio (T6 v P) (SLC12A2 (1842) genotype GG): 2.5
- % Responders T6 (SLC12A2 (3801) genotype CC): 58%
- Odds Ratio (T6 v P) (SLC12A2 (3801) genotype CC): 7.9
- % Responders T6 (SLC12A2 (3801) genotype CT): 49%
- Odds Ratio (T6 v P) (SLC12A2 (3801) genotype CT): 2.4
- % Responders T6 (SLC12A2 (3801) genotype TT): 50%
- Odds Ratio (T6 v P) (SLC12A2 (3801) genotype TT): 2.9
- % Responders T6 (TPH1 (1756) genotype GG): 51%
- Odds Ratio (T6 v P) (TPH1 (1756) genotype GG): 6.1
- % Responders T6 (TPH1 (1756) genotype GT): 51%
- Odds Ratio (T6 v P) (TPH1 (1756) genotype GT): 2.4
- % Responders T6 (TPH1 (1756) genotype TT): 45%
- Odds Ratio (T6 v P) (TPH1 (1756) genotype TT): 2.2
- % Responders T6 (TPH1 (3784) genotype CC): 41%
- Odds Ratio (T6 v P) (TPH1 (3784) genotype CC): 1.9
- % Responders T6 (TPH1 (3784) genotype CT): 52%
- Odds Ratio (T6 v P) (TPH1 (3784) genotype CT): 2.5
- % Responders T6 (TPH1 (3784) genotype TT): 51%
- Odds Ratio (T6 v P) (TPH1 (3784) genotype TT): 5.8
- % Responders T6 (all genotypes): 49%
- Odds Ratio (T6 v P) (all genotypes): 2.8
- % Responders T6 (all genotypes (Table 11)): 49%
- Odds Ratio (T6 v P) (all genotypes (Table 11)): 2.8
- response rate (high responder genotypes of HTR4, tegaserod-treated patients): > 60%
